# Experimental data from US5861520A, “Glycolipid analogs” (Seikagaku Kogyo Kabushiki Kaisha (Seikagaku Corporation), priority 1994, dated 1999).
# “Also recorded” adds a separate entry of the source.
# Columns and labels:
# Assay type in all cases: biochemical
# β-galactocerebrosidase [1] = assay: β-galactocerebrosidase inhibition, 4-methyl-umbelliferyl substrate; details: mouse brain microsome, 4-methyl-umbelliferyl glucoside
# Protocol: (§1) (2) The inhibitory effects of each of compounds 1E, 1Z, 2E and 2Z synthesized in Examples 1 to 4, the above-described compound C-1 and the following compounds C-5 and C-6 on β-glucocerebrosidase and β-galactocerebrosidase were determined by the following method. Namely, the same enzyme sources as employed in the above (1) were used, while 4-methyl-umbelliferyl glucoside was used as a substrate. The inhibition (%) and IC50 were determined in accordance with the method of Peter et al. [Clin. Chim. Acta, 60, 391-396 (1975)]. In each case, the substrate was used in a constant and large excess amount over the corresponding enzyme.
# β-glucocerebrosidase [2] = molecular target: T1, β-glucocerebrosidase (Mus musculus, UniProt P17439); assay: β-glucocerebrosidase inhibition with 4-methyl-umbelliferyl glucoside as substrate; details: mouse liver microsome
# T1 construct: mouse liver microsome as an enzyme source; from tissue; host or cells: mouse liver microsome
# T1 sequence (P17439 20-515): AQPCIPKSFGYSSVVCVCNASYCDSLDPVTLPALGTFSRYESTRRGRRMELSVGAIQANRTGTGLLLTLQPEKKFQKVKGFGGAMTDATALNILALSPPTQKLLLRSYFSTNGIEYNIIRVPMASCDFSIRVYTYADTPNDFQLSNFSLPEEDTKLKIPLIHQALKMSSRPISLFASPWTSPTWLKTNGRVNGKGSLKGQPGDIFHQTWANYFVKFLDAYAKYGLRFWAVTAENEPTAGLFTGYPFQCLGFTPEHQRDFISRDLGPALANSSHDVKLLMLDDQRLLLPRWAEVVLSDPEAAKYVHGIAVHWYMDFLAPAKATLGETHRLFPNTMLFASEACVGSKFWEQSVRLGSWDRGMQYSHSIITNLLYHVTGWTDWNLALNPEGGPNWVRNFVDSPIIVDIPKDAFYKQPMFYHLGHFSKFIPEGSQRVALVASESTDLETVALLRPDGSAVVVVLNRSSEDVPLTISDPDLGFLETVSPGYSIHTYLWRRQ
# Protocol: as §1
# β-galactocerebrosidase [3] = molecular target: T2, β-galactocerebrosidase (Mus musculus, UniProt P54818); assay: β-galactocerebrosidase inhibition with NBD-galactocerebroside (fluorescence-labeled natural substrate), mouse brain microsome; details: for inhibition at 10 µM / IC50: NBD-galactocerebroside, mouse brain microsome; for inhibition at 10 µM / inhibition of β-galactocerebrosidase activity (in words): 10 μM
# T2 construct: mouse brain microsome as an enzyme source; from tissue; host or cells: mouse brain microsome
# T2 sequence (P54818 43-684): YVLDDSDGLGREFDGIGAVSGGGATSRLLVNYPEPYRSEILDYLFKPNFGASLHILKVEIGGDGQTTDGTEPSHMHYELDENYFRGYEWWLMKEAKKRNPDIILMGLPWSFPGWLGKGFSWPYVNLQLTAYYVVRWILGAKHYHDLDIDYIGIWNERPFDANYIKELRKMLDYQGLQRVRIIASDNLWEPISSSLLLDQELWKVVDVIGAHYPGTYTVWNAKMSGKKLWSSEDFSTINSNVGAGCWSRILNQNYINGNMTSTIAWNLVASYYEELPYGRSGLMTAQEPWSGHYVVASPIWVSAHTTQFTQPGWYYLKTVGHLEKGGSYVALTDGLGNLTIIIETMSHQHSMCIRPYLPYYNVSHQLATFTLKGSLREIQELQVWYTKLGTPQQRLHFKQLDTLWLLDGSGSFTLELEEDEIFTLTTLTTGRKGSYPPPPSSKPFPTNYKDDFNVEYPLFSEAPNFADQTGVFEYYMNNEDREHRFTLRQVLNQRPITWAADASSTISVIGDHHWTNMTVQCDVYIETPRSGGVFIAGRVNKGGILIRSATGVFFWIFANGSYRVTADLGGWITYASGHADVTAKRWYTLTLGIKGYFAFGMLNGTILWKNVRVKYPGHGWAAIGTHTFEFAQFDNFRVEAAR
# Protocol: (§2) Glycosidase inhibitory effects of glycolipid analogs (1) The inhibitory effects of each of compounds 1E, 1Z, 2E and 2Z synthesized in Examples 1 to 4 on β-glucocerebrosidase and β-galactocerebrosidase were determined by using fluorescence-labeled natural substrates, i.e., 12-[N-methyl-N-(7-nitro-2-oxa-1,3-diaxol-4-yl)]aminododecanoic acid (NBD)-glucocerebroside and NBD-galactocrebroside. Namely, the β-glucocerebrosidease activity was determined in accordance with the method of Granbowski et al. [Clin. Chim. Acta., […], 123-135 (1982)] with the use of mouse liver microsome as an enzyme source. On the other hand, the β-galactocerebrosidase activity was determined in accordance with the method of Raghavan et al. [Biochim. Biophys. Acta, 877, 1-8 (1986)] with the use of mouse brain microsome as an enzyme source. […] Each substrate was used in a constant and large excess amount over the corresponding enzyme. […] IC50 levels (the concentration necessary for inhibiting 50% of the enzyme activity) of compounds 1E and 1Z were 0.3 μM and 0.1 μM, respectively. […] The inhibition (%) was determined in accordance with the following formula. [formula]
# (§3) Under the same conditions as employed above, further, the inhibitory effects of the following compound C-1 [in the formula (a), X=NH, sugar analog=glucose type] being similar to the glycolipid analogs of the present invention and the sugar analogs C-2 to C-4 represented by the following formula [synthesized by the method similar to in the synthesis of compound C-1] were examined and compared.
# β-glucocerebrosidase [4] = molecular target: T1, β-glucocerebrosidase; assay: β-glucocerebrosidase inhibition with NBD-glucocerebroside (fluorescence-labeled natural substrate), mouse liver microsome; details: for inhibition of β-glucocerebrosidase activity (in words) / inhibition at 10 µM: 10 μM; for inhibition at 10 µM / IC50: NBD-glucocerebroside, mouse liver microsome; for enhancement of β-glucocerebrosidase inhibition compared with C-1 and C-3 (in words): compared with saturated analogs C-1 and C-3
# Protocol: as §2, §3
40 μM inhibition (%) (β-galactocerebrosidase [1]),inhibition at 40 µM (β-glucocerebrosidase [2]) [%],IC50 (β-glucocerebrosidase [2]) [nM],inhibition at 10 µM (β-galactocerebrosidase [3]) [%],inhibition at 10 µM (β-glucocerebrosidase [4]) [%],IC50 (β-glucocerebrosidase [4]) [nM],enhancement of β-glucocerebrosidase inhibition compared with C-1 and C-3 (in words) (β-glucocerebrosidase [4]),IC50 (β-galactocerebrosidase [1]) [nM],IC50 (β-galactocerebrosidase [3]) [nM],SMILES,inhibition of β-glucocerebrosidase activity (in words) (β-glucocerebrosidase [4]),inhibition of β-galactocerebrosidase activity (in words) (β-galactocerebrosidase [3])
1,97,580,0,95.2,300,extremely enhanced,–,–,"CCCCCCCCCCCCC/C=C/[C@@H](O)[C@H](CN[C@@H]1C=C(CO)[C@@H](O)[C@H](O)[C@H]1O)NC(=O)CCCCCCCCCCCCCCC [Compound 1E, (2S,3R,4E)-1-[(5a-carba-β-D-xylo-hex-5-enopyranosyl)amino]-2-(hexadecanoylamino)-4-octadecen-3-ol]",strongly and specifically inhibited the β-glucocerebrosidase activity alone; also recorded: almost completely inhibited the β-glucocerebrosidase activity,–
1,99,440,0,97.7,100,extremely enhanced,–,–,"CCCCCCCCCCCCC/C=C\[C@@H](O)[C@H](CN[C@@H]1C=C(CO)[C@@H](O)[C@H](O)[C@H]1O)NC(=O)CCCCCCCCCCCCCCC [Compound 1Z, (2S,3R,4Z)-1-[(5a-carba-β-D-xylo-hex-5-enopyranosyl)amino]-2-(hexadecanoylamino)-4-octadecen-3-ol]",strongly and specifically inhibited the β-glucocerebrosidase activity alone; also recorded: almost completely inhibited the β-glucocerebrosidase activity,–
95,31,–,92.6,0,–,–,1250,1600,"CCCCCCCCCCCCC/C=C/[C@@H](O)[C@H](CN[C@@H]1C=C(CO)[C@H](O)[C@H](O)[C@H]1O)NC(=O)CCCCCCCCCCCCCCC [Compound 2E, (2S,3R,4E)-1-[(5a-carba-α-L-arabino-hex-5-enopyranosyl)amino]-2-(hexadecanoylamino)-4-octadecen-3-ol]",–,strongly and specifically inhibited the β-galactocerebrosidase activity alone
92,43,–,87.2,0,–,–,1850,2300,"CCCCCCCCCCCCC/C=C\[C@@H](O)[C@H](CN[C@@H]1C=C(CO)[C@H](O)[C@H](O)[C@H]1O)NC(=O)CCCCCCCCCCCCCCC [Compound 2Z, (2S,3R,4Z)-1-[(5a-carba-α-L-arabino-hex-5-enopyranosyl)amino]-2-(hexadecanoylamino)-4-octadecen-3-ol]",–,strongly and specifically inhibited the β-galactocerebrosidase activity alone
7,56,–,0,37.3,–,–,–,–,"CCCCCCCCCCCCC/C=C/[C@@H](O)[C@H](CN[C@@H]1C[C@H](CO)[C@@H](O)[C@H](O)[C@H]1O)NC(=O)CCCCCCCCCCCCCCC [Compound C-1, reference compound]",–,–
–,–,–,12.9,0,–,–,–,–,"CCCCCCCCCCCCC/C=C/[C@@H](O)[C@H](CN[C@@H]1C[C@H](CO)[C@H](O)[C@H](O)[C@H]1O)NC(=O)CCCCCCCCCCCCCCC [Compound C-2, reference compound]",–,slightly inhibited the β-galactocerebrosidase activity
–,–,–,2.3,64,–,–,–,–,"CCCCCCCCCCCCC/C=C\[C@@H](O)[C@H](CN[C@@H]1C[C@H](CO)[C@@H](O)[C@H](O)[C@H]1O)NC(=O)CCCCCCCCCCCCCCC [Compound C-3, reference compound]",–,–
–,–,–,15.4,0,–,–,–,–,"CCCCCCCCCCCCC/C=C\[C@@H](O)[C@H](CN[C@@H]1C[C@H](CO)[C@H](O)[C@H](O)[C@H]1O)NC(=O)CCCCCCCCCCCCCCC [Compound C-4, reference compound]",–,slightly inhibited the β-galactocerebrosidase activity
31,0,–,–,–,–,–,–,–,"CCCCCCCCCCCCC/C=C/[C@@H](O)[C@H](CO[C@@H]1C[C@H](CO)[C@@H](O)[C@H](O)[C@H]1O)NC(=O)CCCCCCCCCCCCCCC [Compound C-5, reference compound]",–,–
0,0,–,–,–,–,–,–,–,"CCCCCCCCCCCCC/C=C/[C@@H](O)[C@H](CS[C@@H]1C[C@H](CO)[C@@H](O)[C@H](O)[C@H]1O)NC(=O)CCCCCCCCCCCCCCC [Compound C-6, reference compound]",–,–
